Drawing on PubChem BioAssay (NCI), this text covers TGI and GI50 for 19 compounds.

Some test systems named below: EKVX NSCLC; UO-31 renal; T-47D breast; OVCAR-8 ovarian; HT29 colon; SF-295 CNS; SR leukemia; NCI-H522 lung; MDA-MB-435; NCI-H23 lung.
Common to all, as to assay: NCI tumour cell line growth inhibition, 48 h

Molecules are shown by their SMILES.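 Growth conditions: 96-well plates. Treatment: test compound, 48 hours, 5 concentrations. Analysis: linear interpolation between bracketing concentrations; unreached endpoints set to highest concentration. GI50 = concentration required for 50% inhibition of growth. TGI denotes the concentration required for complete inhibition of growth.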 Bounds are passed on as bounds.

In the case of `COC(=O)NC(Cc1ccccc1)NC(=O)OC(C)(C)C` (stereo unspecified), the TGI with EKVX NSCLC, in the test on UO-31 renal, in the test on T-47D breast, in the test on OVCAR-8 ovarian, in the test with HT29 colon and with SF-295 CNS was greater than 100 µM each time. The TGI in the test on SR leukemia, in the test with NCI-H522 lung, in the test on MDA-MB-435 and in the test on NCI-H23 lung was greater than 100 µM each time.
Turning to `C[Si](C)(C)OC1(C#N)c2ccccc2CCCC12CCCC2` (stereo unspecified), the TGI is greater than 100 µM in the test on EKVX NSCLC; greater than 100 µM in the test with UO-31 renal; 85.5 µM in the test on T-47D breast; greater than 100 µM in the test with OVCAR-8 ovarian; greater than 100 µM with HT29 colon; greater than 100 µM in the test on SF-295 CNS. In addition, the TGI in the test with SR leukemia is greater than 100 µM; with NCI-H522 lung, 77.7 µM; in the test with MDA-MB-435, greater than 100 µM; in the test on NCI-H23 lung, greater than 100 µM.
`CCOc1ccc2c(c1)C(/C(C(Cl)=C(Cl)Cl)=[N+](/[O-])OC(=O)c1ccccc1)=N2`: the TGI in the test with EKVX NSCLC, with UO-31 renal, in the test on T-47D breast, in the test with OVCAR-8 ovarian, with HT29 colon and in the test on SF-295 CNS was greater than 100 µM throughout. The TGI in the test with SR leukemia, with NCI-H522 lung, with MDA-MB-435 and in the test with NCI-H23 lung was greater than 100 µM each time.
Regarding `CCN(CC)/N=C\c1c2ccccc2cc2ccccc12`, the TGI was greater than 100 µM in the test with EKVX NSCLC; greater than 100 µM with UO-31 renal; greater than 100 µM in the test on T-47D breast; greater than 100 µM in the test on OVCAR-8 ovarian; 88.3 µM in the test with HT29 colon; greater than 100 µM in the test with SF-295 CNS. In addition, the TGI with SR leukemia is greater than 100 µM; in the test on NCI-H522 lung it was 63.7 µM; in the test on MDA-MB-435, greater than 100 µM; in the test on NCI-H23 lung, greater than 100 µM.
As for `COc1ccc(NC(=O)CSC(=O)c2ccccc2)c(SCCSSCCSc2cc(OC)ccc2NC(=O)CSC(=O)c2ccccc2)c1`, the TGI with EKVX NSCLC, with UO-31 renal, in the test on T-47D breast, in the test with OVCAR-8 ovarian, in the test on HT29 colon and in the test on SF-295 CNS was greater than 100 µM each time. The TGI in the test with SR leukemia, with NCI-H522 lung, with MDA-MB-435 and in the test on NCI-H23 lung was greater than 100 µM each time.
Regarding `COC(=O)N[C@@H]1C[C@H]2CC[C@]1(O[Si](C(C)C)(C(C)C)C(C)C)C(=O)C2`, the TGI with EKVX NSCLC is 31.8 µM; in the test with UO-31 renal it was 32 µM; in the test with T-47D breast, greater than 100 µM; with OVCAR-8 ovarian it was 63.4 µM; with HT29 colon it was 47.8 µM; in the test with SF-295 CNS, 39.7 µM. Moreover, the TGI is greater than 100 µM in the test on SR leukemia, 24 µM in the test with NCI-H522 lung, 41.6 µM with MDA-MB-435 and 39.3 µM in the test with NCI-H23 lung.
Consider `CCOP(=O)(OCC)/C(=C/n1c(=S)[nH]c2ccccc21)C(=O)OC`, for which the TGI with EKVX NSCLC, with UO-31 renal, with T-47D breast, in the test with OVCAR-8 ovarian, in the test with HT29 colon and with SF-295 CNS was greater than 100 µM in each case. The TGI in the test with SR leukemia, with NCI-H522 lung, in the test with MDA-MB-435 and with NCI-H23 lung was greater than 100 µM each time. Also, the GI50 in the test on UO-31 renal is greater than 100 µM.
For `CCCCCCCCCCCC(=O)N(CCCCCCCCC)CC(O)C(O)C(OC1OC(CO)C(O)C(O)C1O)C(O)CO` (stereo unspecified), the TGI in the test on EKVX NSCLC amounted to 31.5 µM; with UO-31 renal, 30.9 µM; in the test with T-47D breast, 44.3 µM; in the test on OVCAR-8 ovarian it was 39.3 µM; in the test with HT29 colon it was 34.4 µM; in the test with SF-295 CNS it was 40 µM. The TGI worked out at 42.4 µM in the test on SR leukemia, 44.1 µM with NCI-H522 lung, 32 µM in the test on MDA-MB-435 and 35.3 µM in the test with NCI-H23 lung.
For the compound `[N-]=[N+]=Nc1cc(=O)[nH]c2ccccc12`, the TGI was 42.5 µM in the test on EKVX NSCLC; greater than 100 µM in the test on UO-31 renal; greater than 100 µM with T-47D breast; greater than 100 µM in the test on OVCAR-8 ovarian; greater than 100 µM in the test on HT29 colon; greater than 100 µM in the test on SF-295 CNS. For the same compound, the TGI in the test with SR leukemia, in the test on NCI-H522 lung, in the test on MDA-MB-435 and in the test on NCI-H23 lung was greater than 100 µM throughout.
Turning to `N#Cc1sc2c(c1OC(=O)c1ccco1)c(=O)n(-c1ccccc1)c(=S)n2-c1ccccc1`, the TGI with EKVX NSCLC is greater than 100 µM; in the test with UO-31 renal it was 44.1 µM; with T-47D breast it was 77.5 µM; in the test with OVCAR-8 ovarian it was greater than 100 µM; in the test on HT29 colon, greater than 100 µM; in the test with SF-295 CNS, greater than 100 µM. Further, the TGI with SR leukemia is greater than 10 µM; with NCI-H522 lung, 64.4 µM; in the test on MDA-MB-435, 84.4 µM; in the test with NCI-H23 lung it was greater than 100 µM.
For the compound `Cc1cc2nc3c(C#N)c(C)c(CCCl)c(Cl)n3c2cc1C`, the TGI in the test on EKVX NSCLC amounted to 35.6 µM; in the test with UO-31 renal, 7.25 µM; with T-47D breast it was 8.9 µM; in the test with OVCAR-8 ovarian it was 7.55 µM; in the test on HT29 colon, 5.91 µM; in the test with SF-295 CNS, 13.8 µM. The TGI in the test on SR leukemia is 5.81 µM; in the test with NCI-H522 lung it was greater than 100 µM; in the test on MDA-MB-435, 4.92 µM; in the test with NCI-H23 lung, 5.29 µM.
Consider `COC(=O)C1=C(C)NC(C)=C(C(=O)OC)C1c1cccc(/[N+]([O-])=C/c2ccccc2)c1`, for which the TGI in the test with EKVX NSCLC is greater than 100 µM; in the test with UO-31 renal, greater than 100 µM; with T-47D breast, 41.6 µM; in the test on OVCAR-8 ovarian, 32.7 µM; in the test with HT29 colon, 87.4 µM; in the test with SF-295 CNS, greater than 100 µM. Further, the TGI with SR leukemia is 62 µM; in the test on NCI-H522 lung, 30.2 µM; in the test with MDA-MB-435, 35.7 µM; in the test with NCI-H23 lung it was greater than 100 µM.
As to `O=[N+]([O-])c1c(O)c2nonc2c2nn(-c3ccccc3)nc12`, the TGI with EKVX NSCLC, in the test with UO-31 renal, in the test with T-47D breast, in the test with OVCAR-8 ovarian, in the test on HT29 colon and in the test with SF-295 CNS was greater than 100 µM throughout. In addition, the TGI in the test with SR leukemia, with NCI-H522 lung, in the test with MDA-MB-435 and with NCI-H23 lung was greater than 100 µM throughout.
For the compound `N#Cc1c(/C=C/c2ccccc2)c2c([nH]c1=S)CCCCC2`, the TGI with EKVX NSCLC, in the test with UO-31 renal, in the test on T-47D breast, in the test with OVCAR-8 ovarian, with HT29 colon and in the test with SF-295 CNS was greater than 100 µM in each case. The TGI with SR leukemia, in the test on NCI-H522 lung, in the test with MDA-MB-435 and in the test with NCI-H23 lung was greater than 100 µM in each case.
As for `Cc1cnc2c(c1)C(=O)N(c1ccc(Oc3ccccc3)cc1)S2(=O)=O`, the TGI with EKVX NSCLC, with UO-31 renal, in the test on T-47D breast, in the test on OVCAR-8 ovarian, in the test on HT29 colon and in the test with SF-295 CNS was greater than 100 µM each time. The TGI in the test on SR leukemia, in the test on NCI-H522 lung, in the test on MDA-MB-435 and in the test with NCI-H23 lung was greater than 100 µM each time.
As to `CCSC12OC3(CCCCCN3C1=O)C1C(=O)N(c3ccccc3)C(=O)C12` (stereo unspecified), the TGI with EKVX NSCLC, with UO-31 renal, in the test on T-47D breast, in the test with OVCAR-8 ovarian, in the test on HT29 colon and in the test on SF-295 CNS was greater than 100 µM in each case. Also, the TGI with SR leukemia, with NCI-H522 lung, with MDA-MB-435 and with NCI-H23 lung was greater than 100 µM each time.
On to `COc1cc2nc(-c3cccs3)nc(N3CCN(c4ccccc4)CC3)c2cc1OC`, for which the TGI in the test with EKVX NSCLC, in the test on UO-31 renal, in the test with T-47D breast, with OVCAR-8 ovarian, in the test with HT29 colon and in the test with SF-295 CNS was greater than 100 µM in each case. The TGI with SR leukemia, in the test with NCI-H522 lung, with MDA-MB-435 and in the test with NCI-H23 lung was greater than 100 µM in each case.
Take `CCOC(=O)Cc1[nH]c(C(=O)c2ccccc2)cc1C(=O)c1ccccc1`: the TGI was greater than 100 µM with EKVX NSCLC; greater than 10 µM in the test with UO-31 renal; greater than 100 µM in the test with T-47D breast; greater than 10 µM in the test with OVCAR-8 ovarian; greater than 10 µM with HT29 colon; greater than 10 µM with SF-295 CNS. The TGI is greater than 100 µM with SR leukemia, greater than 100 µM in the test with NCI-H522 lung, 66 µM in the test on MDA-MB-435 and 33.4 µM with NCI-H23 lung.
As to `CC1(C)CCCCCC(O)C(O)CCC(C)(C)C1=O` (stereo unspecified), the TGI with EKVX NSCLC, in the test on UO-31 renal, in the test on T-47D breast, with OVCAR-8 ovarian, in the test with HT29 colon and with SF-295 CNS was greater than 100 µM throughout. For the same compound, the TGI in the test on SR leukemia, in the test with NCI-H522 lung, in the test with MDA-MB-435 and in the test on NCI-H23 lung was greater than 100 µM in each case.
